Experimental data as given in PubChem BioAssay AID248 (DTP/NCI, 2004).
“And” between values parts separate entries of the source, which are not always exact repeats. Identical values can stand only once. Inconclusive results and toxic doses are left out. No stated cut-off is given here; in the data, active means T/C of 150% or more; inactive means T/C below 125%.

Test system: L1210 leukemia ip in BDF1 mice, survival T/C
Test: NCI In Vivo Anticancer Drug Screen. Data for tumor model L1210 Leukemia (intraperitoneal) in B6D2F1 (BDF1) mice
Conditions: endpoint: mean survival time, higher = longer survival
Procedure, shortened: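 Survival endpoint. Drug-treated group vs vehicle group, expressed as T divided by C. Tumor passaged by transplantation.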

[1] = dose: 100.0 mg/kg/injection, schedule: Q01DX009 (ip), vehicle: saline with Tween-80
[2] = dose: 100.0 mg/kg/injection, schedule: Q04DX003 (ip), vehicle: saline with Tween-80
[3] = dose: 200.0 mg/kg/injection, schedule: Q01DX009 (ip), vehicle: saline with Tween-80
[4] = dose: 200.0 mg/kg/injection, schedule: Q04DX003 (ip), vehicle: saline with Tween-80
[5] = dose: 400.0 mg/kg/injection, schedule: Q04DX003 (ip), vehicle: saline with Tween-80
[6] = dose: 100.0 mg/kg/injection, schedule: Q01DX001 (ip), vehicle: carboxymethylcellulose (CMC)
[7] = dose: 200.0 mg/kg/injection, schedule: Q01DX001 (ip), vehicle: carboxymethylcellulose (CMC)
[8] = dose: 400.0 mg/kg/injection, schedule: Q01DX001 (ip), vehicle: carboxymethylcellulose (CMC)
[9] = dose: 75.0 mg/kg/injection, schedule: Q01DX001 (ip), vehicle: other
[10] = dose: 100.0 mg/kg/injection, schedule: Q04DX003 (ip), vehicle: Klucel (hydroxypropylcellulose) (HPC)
[11] = dose: 100.0 mg/kg/injection, schedule: Q04DX003 (ip), vehicle: saline
[12] = dose: 200.0 mg/kg/injection, schedule: Q04DX003 (ip), vehicle: saline
[13] = dose: 400.0 mg/kg/injection, schedule: Q04DX003 (ip), vehicle: saline
[14] = dose: 100.0 mg/kg/injection, schedule: Q01DX009 (ip), vehicle: Klucel (hydroxypropylcellulose) (HPC)
[15] = dose: 200.0 mg/kg/injection, schedule: Q01DX009 (ip), vehicle: Klucel (hydroxypropylcellulose) (HPC)
[16] = dose: 400.0 mg/kg/injection, schedule: Q01DX009 (ip), vehicle: Klucel (hydroxypropylcellulose) (HPC)
[17] = dose: 50.0 mg/kg/injection, schedule: Q01DX001 (ip), vehicle: saline
[18] = dose: 100.0 mg/kg/injection, schedule: Q01DX001 (ip), vehicle: saline
[19] = dose: 200.0 mg/kg/injection, schedule: Q01DX001 (ip), vehicle: saline
[20] = dose: 400.0 mg/kg/injection, schedule: Q01DX001 (ip), vehicle: saline

Measured: T/C

CC1(C)C(=O)C(C)(C)C1=Nc1ccccc1
inactive: [1] 95 % of control | [2] 108 % of control | [3] 94 % of control | [4] 106 % of control | dose: 400.0 mg/kg/injection, schedule: Q01DX009 (ip), vehicle: saline with Tween-80 97 % of control | [5] 106 % of control

CC(CCC(CCC(C)CC(C)(C)C)CCC(C)CC(C)(C)C)CC(C)(C)C (centres undefined)
inactive: dose: 75.0 mg/kg/injection, schedule: Q01DX001 (ip), vehicle: saline with Tween-80 104 % of control | dose: 300.0 mg/kg/injection, schedule: Q01DX001 (ip), vehicle: saline with Tween-80 97 % of control

COc1ccc(O)c(CC(C)C)c1
inactive: dose: 100.0 mg/kg/injection, schedule: Q04DX003 (ip), vehicle: acetone 96 % of control | dose: 200.0 mg/kg/injection, schedule: Q04DX003 (ip), vehicle: acetone 102 % of control | dose: 400.0 mg/kg/injection, schedule: Q04DX003 (ip), vehicle: acetone 93 % of control

Nc1cccc(-c2nc3[nH]ncc3c(=O)[nH]2)c1
inactive: dose: 25.0 mg/kg/injection, schedule: Q01DX001 (ip), vehicle: Klucel (hydroxypropylcellulose) (HPC) 100 % of control | dose: 50.0 mg/kg/injection, schedule: Q01DX001 (ip), vehicle: Klucel (hydroxypropylcellulose) (HPC) 98 % of control | dose: 100.0 mg/kg/injection, schedule: Q01DX001 (ip), vehicle: Klucel (hydroxypropylcellulose) (HPC) 93 % of control

Nc1ncnc(N2CCOCC2)n1
inactive: [6] 96 % of control | [7] 107 % of control | [8] 100 % of control

COc1cc(C(=O)NCc2cccs2)cc(OC)c1OC
inactive: dose: 100.0 mg/kg/injection, schedule: Q04DX002 (ip), vehicle: Klucel (hydroxypropylcellulose) (HPC) 102 % of control | dose: 200.0 mg/kg/injection, schedule: Q04DX002 (ip), vehicle: Klucel (hydroxypropylcellulose) (HPC) 94 % of control | dose: 400.0 mg/kg/injection, schedule: Q04DX002 (ip), vehicle: Klucel (hydroxypropylcellulose) (HPC) 94 % of control

CCNCc1cc(Nc2cc(C)nc(/N=C(\N)Nc3ccc(Cl)c(Cl)c3)n2)ccc1OC
inactive: dose: 3.12 mg/kg/injection, schedule: Q01DX009 (ip), vehicle: Klucel (hydroxypropylcellulose) (HPC) 94 % of control | dose: 6.25 mg/kg/injection, schedule: Q01DX009 (ip), vehicle: Klucel (hydroxypropylcellulose) (HPC) 103 % of control | dose: 12.5 mg/kg/injection, schedule: Q01DX009 (ip), vehicle: Klucel (hydroxypropylcellulose) (HPC) 97 % of control | dose: 25.0 mg/kg/injection, schedule: Q04DX003 (ip), vehicle: Klucel (hydroxypropylcellulose) (HPC) 101 % of control | dose: 50.0 mg/kg/injection, schedule: Q04DX003 (ip), vehicle: Klucel (hydroxypropylcellulose) (HPC) 111 % of control | [9] 97 % of control | [10] 95 % of control

Cc1cccc(CO)n1
inactive: dose: 100.0 mg/kg/injection, schedule: Q01DX009 (ip), vehicle: saline 106 % of control | [11] 110 % of control | dose: 200.0 mg/kg/injection, schedule: Q01DX009 (ip), vehicle: saline 108 % of control | [12] 110 % of control | dose: 400.0 mg/kg/injection, schedule: Q01DX009 (ip), vehicle: saline 103 % of control | [13] 103 % of control

O=C(Nc1ccc(C(F)(F)F)cc1)Nc1cccc(Cl)c1
inactive: dose: 50.0 mg/kg/injection, schedule: Q01DX001 (ip), vehicle: carboxymethylcellulose (CMC) 98 % of control | [6] 101 % of control | [7] 93 % of control | [8] 95 % of control

O=C1CCCSc2ccccc21
inactive: [14] 106 % of control | [10] 108 % of control | [15] 104 % of control | dose: 200.0 mg/kg/injection, schedule: Q04DX003 (ip), vehicle: Klucel (hydroxypropylcellulose) (HPC) 106 % of control | [16] 106 % of control | dose: 400.0 mg/kg/injection, schedule: Q04DX003 (ip), vehicle: Klucel (hydroxypropylcellulose) (HPC) 101 % of control

CCC1=[N+](C)C(C)(C)CC(C)O1 (centres undefined)
inactive: dose: 6.25 mg/kg/injection, schedule: Q01DX009 (ip), vehicle: saline 102 % of control | dose: 6.25 mg/kg/injection, schedule: Q04DX003 (ip), vehicle: saline with Tween-80 98 % of control | dose: 12.5 mg/kg/injection, schedule: Q01DX009 (ip), vehicle: saline 102 % of control | dose: 12.5 mg/kg/injection, schedule: Q04DX003 (ip), vehicle: saline with Tween-80 94 % of control | dose: 25.0 mg/kg/injection, schedule: Q01DX009 (ip), vehicle: saline 107 % of control | dose: 25.0 mg/kg/injection, schedule: Q04DX003 (ip), vehicle: saline with Tween-80 94 % of control | dose: 50.0 mg/kg/injection, schedule: Q01DX009 (ip), vehicle: saline 102 % of control | dose: 50.0 mg/kg/injection, schedule: Q04DX003 (ip), vehicle: saline with Tween-80 94 % of control and 95 % of control

COc1ccccc1C(=O)N/N=C/c1ccncc1
inactive: [14] 94 % of control | [15] 94 % of control | [16] 97 % of control

OC(c1ccccc1)(c1ccccc1)c1ccccc1Cl
inactive: [11] 94 % of control | [12] 91 % of control | [13] 91 % of control

COc1cc([N+](=O)[O-])ccc1NC(=O)C(Br)C(Br)C(=O)O (centres undefined)
inactive: dose: 100.0 mg/kg/injection, schedule: Q01DX009 (ip), vehicle: other 94 % of control

OCC(O)C(O)C(O)C(c1ccc(F)cc1)c1ccc(F)cc1 (centres undefined)
inactive: [17] 97 % of control | [18] 100 % of control | [19] 100 % of control | [20] 103 % of control

COCCN(N=O)C(=O)NC1CCCCC1
inactive: dose: 700.0 mg/kg/injection, schedule: Q01DX001 (ip), vehicle: carboxymethylcellulose (CMC) 124 % of control | dose: 800.0 mg/kg/injection, schedule: Q01DX001 (ip), vehicle: carboxymethylcellulose (CMC) 124 % of control | dose: 1000.0 mg/kg/injection, schedule: Q01DX001 (ip), vehicle: carboxymethylcellulose (CMC) 117 % of control

Oc1c(CN2CCCC2)cc(Nc2nccc(/C=C/c3ccc(Cl)cc3)n2)cc1CN1CCCC1
inactive: dose: 25.0 mg/kg/injection, schedule: Q04DX003 (ip), vehicle: saline 96 % of control | [17] 96 % of control | dose: 50.0 mg/kg/injection, schedule: Q04DX003 (ip), vehicle: saline 96 % of control | [18] 93 % of control | [11] 90 % of control

CN(C)S(=O)(=O)ON1C(=O)c2ccccc2C1=O
inactive: [9] 103 % of control | dose: 150.0 mg/kg/injection, schedule: Q01DX001 (ip), vehicle: other 108 % of control | dose: 300.0 mg/kg/injection, schedule: Q01DX001 (ip), vehicle: other 94 % of control

CCOC(=O)c1ccc2c(c1)Cc1c-2cc(Br)c(N)c1Br
inactive: [6] 100 % of control | [7] 102 % of control | [8] 91 % of control

Cc1c2c(cc3c1sc1ccccc13)CCCC2=O
inactive: [18] 101 % of control | [19] 94 % of control | [20] 101 % of control

Cc1ccc(N=C(C(=Nc2ccc(C)cc2)c2ccccc2)c2ccccc2)cc1
inactive: [2] 91 % of control | [4] 90 % of control | [5] 88 % of control

CCOC(=O)Nc1cc(Cl)c([N+](=O)[O-])c(N)n1
inactive: dose: 50.0 mg/kg/injection, schedule: Q01DX001 (ip), vehicle: other 106 % of control | dose: 100.0 mg/kg/injection, schedule: Q01DX001 (ip), vehicle: other 101 % of control | [2] 92 % of control | dose: 200.0 mg/kg/injection, schedule: Q01DX001 (ip), vehicle: other 109 % of control | [4] 116 % of control | dose: 400.0 mg/kg/injection, schedule: Q01DX001 (ip), vehicle: other 104 % of control | [5] 104 % of control

O=S(=O)(c1ccc(N=Nc2ncc[nH]2)cc1)N(CCCl)CCCl
inactive: dose: 50.0 mg/kg/injection, schedule: Q01DX009 (ip), vehicle: saline with Tween-80 90 % of control | [1] 94 % of control | [3] 90 % of control

CC(CO)(CO)N1C(=O)c2cccc3cc([N+](=O)[O-])cc(c23)C1=O
inactive: [14] 112 % of control | [15] 107 % of control
